Experiments:
[1] = system: mouse primary hindbrain neurons (MPHN); experiment: Gene expression in mouse primary hindbrain neurons (MPHN); assay type: cell-based; settings: osteocalcin 3 ng/ml, 2 or 4 hours; WT and Gprc6a−/− primary brainstem neuronal culture
Procedure: For gene expression studies, RNA was isolated from primary neurons or tissue using TRIZOL® (Invitrogen). cDNA synthesis was performed following a standard protocol from Invitrogen and qPCR analyses were done using specific quantitative PCR primers from SABiosciences (http://www.sabiosciences.com/RT2PCR.php).
For primary culture of hindbrain neurons, E14.5 embryos were obtained from matings of 129-Sv WT mice. Hindbrains were dissected out and collected in ice-cold filter sterilized HBSS buffered with 10 mM HEPES until dissection was complete, at which point they were finely chopped into 2 mm cubes, dissociated by trituration with a fire-polished Pasteur pipette and spun down at 4° C. Cells were then plated onto poly-D-lysine coated coverslips or dishes in Neurobasal medium supplemented with 2% B27, 0.25 mM Glutamax, 0.25 mM L-glutamine, penicillin G (50 U/ml), and streptomycin sulphate ([…]). Cultures were fed every 3-6 days with one half replacement medium without L-glutamine.
To determine if osteocalcin acts directly on neurons to modulate neurotransmitter synthesis, several types of assays were performed. First, brainstem and midbrain explants from WT and Gprc6a^−/− mice were generated. […] Third, to further confirm that osteocalcin signals in neurons of the hindbrain, calcium flux in MPHN treated with undercarboxylated or carboxylated osteocalcin (FIG. 3F) was measured.

[2] = system: CREB phosphorylation in the hippocampus; experiment: Stereotactic injection into hippocampus, pCREB and PKA immunofluorescence; assay type: in vivo, mouse; settings: 16 h post injection
Source text: The resulting effects on animal behavior of direct recombinant uncarboxylated osteocalcin delivery raise the question of the molecular mechanism of action of osteocalcin in the brain. Given that osteocalcin acts through a G-protein coupled receptor pathway in other tissues, e.g., pancreas and testis, the phosphorylated CREB levels in the hippocampi of Ocn−/− and WT animals was checked. […] The hippocampus is essential for optimal spatial learning and memory in rodents. It was then asked whether the acute stereotactic injection of 10 ng of recombinant uncarboxylated osteocalcin directly into the hippocampus of WT animals would affect pCREB levels.

3 month-old WT mice = experiment: Alendronate treatment with or without osteocalcin, MWMT and NOR; assay type: in vivo, mouse; settings: peripheral delivery of osteocalcin, 60 ng/hr by osmotic pump
Procedure: For plasma injection experiments, 100 μl of plasma were injected 8 times during 24 days, via tail vein. Each group described is represented individually in each panel. For osteocalcin delivery in WT mice, pumps (Alzet micro-osmotic pump, Model 1002) delivering osteocalcin (30 ng/hr for 12 month-old and 90 ng/hr for 16 month-old mice), or vehicle, were surgically installed subcutaneously in the back of mice. […] Control mice receiving vehicle or mice receiving alendronate were implanted with osmotic pumps delivering vehicle only.
Morris water maze test: Animals are transported to the testing room in their home cages, and left undisturbed for at least 30 minutes prior to the first trial. The maze is comprised of a large swimming pool (150cm diameter) filled with water (23° C.) made opaque with non-toxic white paint. The pool is located in a brightly lit room filled with visual cues, including geometric figures on the walls of the maze demarking the four fixed starting positions of the trials, at (12:00, 3:00, 6:00 and 9:00). A 15 cm round platform is hidden 1 cm beneath the surface of the water at a fixed position. Each daily trial block consisted of four swimming trials, with each mouse starting from the same randomly chosen starting position. The starting position is varied between days. On day 1, mice that fail to find the platform within 2 min are guided to the platform. They must remain on the platform for 15 s before they are returned to their home cage. Mice are not guided to the platform after day 1, and the time it takes them to reach the platform over repeated trials ([…] for the next 10 days) is recorded as a measure of spatial learning.
Novel object recognition test (NOR): The NOR paradigm assesses the rodent's ability to recognize a novel object in the environment. The NOR task will be conducted, as previously described7, in an opaque plastic box using 2 different objects: (1) a clear plastic funnel (diameter 8.5 cm, maximal height 8.5 cm) and (2) a black plastic box (9.5 cm^3). These objects elicit equal levels of exploration as determined in pilot experiments (Denny, C. A., et al., 2012, Hippocampus 22:1188-1201; Oury, F., et al., 2013, Cell 155:228-241). The NOR paradigm consists of 3 exposures over the course of 3 days. On day 1, the habituation phase, mice are given 5 minutes to explore the empty arena, without any objects. On day 2, the familiarization phase, mice are given 10 minutes to explore 2 identical objects, placed at opposite ends of the box. On day 3, the test phase, mice are given 15 minutes to explore 2 objects, one novel object and a copy of the object from the familiarization phase. The object that serves as the novel object (either the funnel or the box) as well as the left/right starting position of the objects are counterbalanced within each group. Mice are placed in the center of the arena at the start of each exposure. […] Preference for the novel object is assessed based on the fraction of time that a mouse spends exploring the novel object compared to the familiar object. Exploration is scored from video recordings of each exposure and recorded using the Stopwatch program. […]
Streptavidin were added for 30 minutes at room temperature followed by PBS washes. […] For hormonal measurement; circulating levels of the carboxylated, undercarboxylated or uncarboxylated forms of osteocalcin were measured by ELISA. CTX content in serum (ng/ml) were measured with specific ELISAs (RatLaps™ (CTX-I) EIA (Immunodiagnosticsystems).

osteocalcin: Recombinant osteocalcin bacterially produced, cleaved from the GST subunit; completely undercarboxylated at all three sites; full-length mouse osteocalcin (YLGASVPSPDPLEPTREQCELNPACDELSDQYGLKTAYKRIYGITI)
Tph2 expression [1]: increased more than three-fold
decrease of GAD1 expression [1]: 65%
pCREB staining ([2]; 10 ng into hippocampus of WT animals, vs PBS hemisphere): pCREB staining was increased
PKA staining ([2]; 10 ng into hippocampus, injected hemisphere): widespread and dramatic increase in PKA staining
behavioral abnormalities (MWMT, NOR) of alendronate-treated mice (3 month-old WT mice): corrected

Reference: patent US20200069775A1, “BRAIN OSTEOCALCIN RECEPTOR AND COGNITIVE DISORDERS” (The Trustees of Columbia University in the City of New York, priority 2017, published 2020)
